Laboratory results reported in US20100041089A1, “IMPROVED METHOD FOR DETECTING CHEMICAL […]” (priority 2006, published 2010).

System: yeast genes (expressed mRNA)
Assay: DNA chip measurement of expressed mRNA of yeast genes after culture with a toxic chemical substance
Assay type: cell-based, Saccharomyces cerevisiae S288C
Details: for level of expressed mRNA in the presence of chemical substance / level in the absence of chemical substance: cultured two hours with the chemical substance; for The level of expressed mRNA in the presence of chemical substance/The level of expressed mRNA in the absence of chemical substance: cultured two hours with substance
Protocol: Yeast (Saccharomyces cerevisiae S288C (a SUC2mal mel gap2 CUP1)) were cultured at 25° C. on YPD medium (yeast extract 1%, polypeptone 2%, glucose 2%). One of toxic chemical substances was added to the cell at logarithmic growth phase, and the cell was further cultured for two hours. Cell was cultured without any chemical substance in the same condition, and was used as a control. Concentrations of the chemical substances were defined to inhibit the growth of the yeast but not lead to death.
After the completion of cultivation, the culture was centrifuged to collect the cells. To the cells, sodium acetate buffer (50 mM sodium acetate, 10 mM EDTA, 1% SDS) was added, and the mixture was shaken at 65° C. for five minutes, followed by returning to room temperature, and obtaining the supernatant, which procedure was repeated two times. To the supernatant, ½ amount of a solution of phenol/chloroform (1:1) was added, and the mixture was centrifuged to give a supernatant, an equal amount of chloroform was added, and the mixture was centrifuged to give a supernatant. To the supernatant, an equal amount of isopropanol containing 0.3 M sodium acetate was added, and the mixture was allowed to stand at room temperature for 30 minutes, after which the mixture was centrifuged to give sediment of the whole RNAs. Seventy % ethanol was added to the sediment, and the mixture was again centrifuged to give sediment, which was then dried and dissolved in water. mRNA was isolated from the whole RNAs as followings. In view of the fact that a poly A chain is attached to the 3′ terminus of mRNA, a polynucleotide having a poly T structure which was immobilized on the surface of latex beads was used to trap the mRNA, and then the mRNA was washed and eluted with spine column (Oligotex-dT30<Super>mRNA Purification Kit, Takara). Reverse transcription of the mRNA was conducted with a reverse transcriptase (Super Script II Reverse Transcriptase; catalogue No. 18064-014, GibcoBRL) using fluorescence-labeled nucleotides to give cDNAs that were introduced with Cy3-dUTP or Cy5-dUTP during the reverse transcription.
The labeled cDNAs were dissolved in TE buffer (10 mM Tris-HCl/1 mM EDTA, pH 8.0), and the solution was dropped on the DNA chip containing the whole genes of yeast (DNA Chip Research Inc. Japan) so that the cDNAs were hybridized on the DNA chip at 65° C. for over 12 hours. The fluoresces intensity of the DNA chip was read with a scanner, and the ratio relative to the fluorescence intensity resulting from the absence of chemical substance was estimated as the following, which is shown in Tables 1 to 9.
In the Tables, “Intensity” indicated in the rightmost column is a value of the level of expressed mRNA of each gene in control cells as divided by the average level of the expressions of the whole genes. A gene of which mRNA level is lower in control, and is higher in cases of addition of chemical substance, is especially useful in the detection of toxic substances.
Here, when a ratio of an amount of mRNA expressed in the presence of the chemical substance to an amount of mRNA expressed in the absence of the chemical substance is two or more, then it is considered significant.

SMILES: CCCCCCCCCCCCc1ccc(S(=O)(=O)[O-])cc1.[Na+] [(17), Sodium dodecylbenzosulfonate]
- level of expressed mRNA in the presence of chemical substance / level in the absence of chemical substance (yeast gene YNL058C): 0.8
- level of expressed mRNA in the presence of chemical substance / level in the absence of chemical substance (yeast gene YNL063W): 0.9
- The level of expressed mRNA in the presence of chemical substance/The level of expressed mRNA in the absence of chemical substance (yeast gene YNL074C): 1.1
- The level of expressed mRNA in the presence of chemical substance/The level of expressed mRNA in the absence of chemical substance (yeast gene YNL092W): 1.7
- The level of expressed mRNA in the presence of chemical substance/The level of expressed mRNA in the absence of chemical substance (yeast gene YNL115C): 1.6
- The level of expressed mRNA in the presence of chemical substance/The level of expressed mRNA in the absence of chemical substance (yeast gene YNL156C): 1.8
- level of expressed mRNA in the presence of chemical substance / level in the absence of chemical substance (yeast gene YNL176C): 0.6
- level of expressed mRNA in the presence of chemical substance / level in the absence of chemical substance (yeast gene YNL194C): 0.8
- level of expressed mRNA in the presence of chemical substance / level in the absence of chemical substance (yeast gene YNL200C): 1.2
- The level of expressed mRNA in the presence of chemical substance/The level of expressed mRNA in the absence of chemical substance (yeast gene YNL234W): 1.0
- level of expressed mRNA in the presence of chemical substance / level in the absence of chemical substance (yeast gene YNL253W): 1.1
- level of expressed mRNA in the presence of chemical substance / level in the absence of chemical substance (yeast gene YNL276C): 1.1
- The level of expressed mRNA in the presence of chemical substance/The level of expressed mRNA in the absence of chemical substance (yeast gene YNL281W): 0.9
- The level of expressed mRNA in the presence of chemical substance/The level of expressed mRNA in the absence of chemical substance (yeast gene YNL305C): 1.7
- level of expressed mRNA in the presence of chemical substance / level in the absence of chemical substance (yeast gene YNR051C): 0.7
- The level of expressed mRNA in the presence of chemical substance/The level of expressed mRNA in the absence of chemical substance (yeast gene YNR068C): 1.0
- level of expressed mRNA in the presence of chemical substance / level in the absence of chemical substance (yeast gene YOL026C): 2.1
- The level of expressed mRNA in the presence of chemical substance/The level of expressed mRNA in the absence of chemical substance (yeast gene YOL032W): 1.7
- The level of expressed mRNA in the presence of chemical substance/The level of expressed mRNA in the absence of chemical substance (yeast gene YOL036W): 1.1
- The level of expressed mRNA in the presence of chemical substance/The level of expressed mRNA in the absence of chemical substance (yeast gene YOL047C): 1.5
- The level of expressed mRNA in the presence of chemical substance/The level of expressed mRNA in the absence of chemical substance (yeast gene YOL071W): 1.3
- The level of expressed mRNA in the presence of chemical substance/The level of expressed mRNA in the absence of chemical substance (yeast gene YOL082W): 1.6
- The level of expressed mRNA in the presence of chemical substance/The level of expressed mRNA in the absence of chemical substance (yeast gene YOL083W): 1.4
- The level of expressed mRNA in the presence of chemical substance/The level of expressed mRNA in the absence of chemical substance (yeast gene YOL117W): 1.3
- The level of expressed mRNA in the presence of chemical substance/The level of expressed mRNA in the absence of chemical substance (yeast gene YOL131W): 1.1
- The level of expressed mRNA in the presence of chemical substance/The level of expressed mRNA in the absence of chemical substance (yeast gene YOL150C): 2.7
- The level of expressed mRNA in the presence of chemical substance/The level of expressed mRNA in the absence of chemical substance (yeast gene YOL162W): 1.2
- The level of expressed mRNA in the presence of chemical substance/The level of expressed mRNA in the absence of chemical substance (yeast gene YOR019W): 1.7
- level of expressed mRNA in the presence of chemical substance / level in the absence of chemical substance (yeast gene YOR022C): 1.1
- level of expressed mRNA in the presence of chemical substance / level in the absence of chemical substance (yeast gene YOR087W): 0.8
- level of expressed mRNA in the presence of chemical substance / level in the absence of chemical substance (yeast gene YOR138C): 1.1
- The level of expressed mRNA in the presence of chemical substance/The level of expressed mRNA in the absence of chemical substance (yeast gene YOR197W): 1.5
- level of expressed mRNA in the presence of chemical substance / level in the absence of chemical substance (yeast gene YOR253W): 0.9
- level of expressed mRNA in the presence of chemical substance / level in the absence of chemical substance (yeast gene YOR267C): 1.3
- level of expressed mRNA in the presence of chemical substance / level in the absence of chemical substance (yeast gene YOR325W): 0.8
- level of expressed mRNA in the presence of chemical substance / level in the absence of chemical substance (yeast gene YPL005W): 1.2
- The level of expressed mRNA in the presence of chemical substance/The level of expressed mRNA in the absence of chemical substance (yeast gene YPL087W): 2.1
- level of expressed mRNA in the presence of chemical substance / level in the absence of chemical substance (yeast gene YPL150W): 1.4
- level of expressed mRNA in the presence of chemical substance / level in the absence of chemical substance (yeast gene YPL152W): 1.2
- level of expressed mRNA in the presence of chemical substance / level in the absence of chemical substance (yeast gene YPL168W): 1.1
- level of expressed mRNA in the presence of chemical substance / level in the absence of chemical substance (yeast gene YPL180W): 1.0
- level of expressed mRNA in the presence of chemical substance / level in the absence of chemical substance (yeast gene YPL188W): 0.7
- The level of expressed mRNA in the presence of chemical substance/The level of expressed mRNA in the absence of chemical substance (yeast gene YPL196W): 1.4
- The level of expressed mRNA in the presence of chemical substance/The level of expressed mRNA in the absence of chemical substance (yeast gene YPL206C): 1.4
- level of expressed mRNA in the presence of chemical substance / level in the absence of chemical substance (yeast gene YPL221W): 1.5
- The level of expressed mRNA in the presence of chemical substance/The level of expressed mRNA in the absence of chemical substance (yeast gene YPL222W): 1.1
- level of expressed mRNA in the presence of chemical substance / level in the absence of chemical substance (yeast gene YPL225W): 1.0
- The level of expressed mRNA in the presence of chemical substance/The level of expressed mRNA in the absence of chemical substance (yeast gene YPR023C): 1.0
- level of expressed mRNA in the presence of chemical substance / level in the absence of chemical substance (yeast gene YPR049C): 1.0
- level of expressed mRNA in the presence of chemical substance / level in the absence of chemical substance (yeast gene YPR146C): 1.0
- level of expressed mRNA in the presence of chemical substance / level in the absence of chemical substance (yeast gene YPR148C): 0.9
- The level of expressed mRNA in the presence of chemical substance/The level of expressed mRNA in the absence of chemical substance (yeast gene YPR151C): 1.3
- level of expressed mRNA in the presence of chemical substance / level in the absence of chemical substance (yeast gene YPR172W): 1.1
